Paper PMC11314063, “Inhibition of DNA Topoisomerase Ι by Flavonoids and Polyacetylenes Isolated from Bidens pilosa L” (Molecules, 2024)

How the values were obtained:
HepG2 = test: SRB cytotoxicity assay, HepG2; type: cell-based; details: Homo sapiens, HepG2; SRB assay, 48 h, mean ± SD; read-out: IC50 Cytotoxicity HepG2
Source text: (§1) The cell lines MDA-MB-231 (No. TCHu227), A549 (No. TCHu150), and HepG2 (No. TCHu72) were obtained from the Cell Bank/Stem Cell Bank, Chinese Academy of Sciences (Shanghai, China). The cell lines DLD-1 (No. CC0507) and HCT116 (No. CC0506) were obtained from the Cell Bank of Cellcook Biotech Co., Ltd. (Guangzhou, China). Cell line HL-7702 (No. BNCC338358) was obtained from Bena Culture Collection (Zhengzhou, China).
(§2) The human cancer cell lines MDA-MB-231 (breast adenocarcinoma), DLD-1 (colorectal adenocarcinoma), A549 (lung epithelial carcinoma), HCT116 (colorectal adenocarcinoma), HepG2 (hepatocellular carcinoma), and human hepatocyte HL-7702 were cultured in Dulbecco’s modified eagle medium (DMEM, Biological Industries, Beit Haemek, Israel) containing 10% (v/v) fetal bovine serum (FBS, Biological Industries, Beit Haemek, Israel) at 37 °C in a humidified incubator (ThermoFisher, Carlsbad, CA, USA) with a 5% CO2 atmosphere.

HCT116 = test: SRB cytotoxicity assay, HCT116; type: cell-based; details: Homo sapiens, HCT-116; SRB assay, 48 h, mean ± SD; read-out: IC50 Cytotoxicity HCT116
Source text: as §1, §2

HCT116 cells = test: DNA content analysis (cell cycle, flow cytometry) in HCT116; type: cell-based, human; details: 24 h
Description: (§3) Cells were seeded in 6-well plates and allowed to adhere for 24 h at 37 °C. After treatment with different concentrations of the samples for another 24 h, the cells were harvested and washed with PBS, and then, the DNA content analysis was conducted with a cell cycle staining kit (Multi sciences, Hangzhou, China), according to the manufacturer’s instructions. The fluorescence intensity of the cells was measured by flow cytometry (Beckman CytoFlex, Miami, FL, USA).
Figure S21 Results of flavonoid 5 induced cell cycle arrests in HCT116 cells. A)
Representative images of flow-cytometry analysis of DNA content; B) Statistic analysis
of cells in G1, S, and G2/M phase after treated with 5. After treatment with 2 and 1 μM
compounds 5 for 24 h, the percentages of cell population in the G2/M phase
respectively, which meant a potent G2/M cell cycle arrest caused by the treatment (P<
0.0001). In addition, after treatment with 0.5 μM compounds 5 for 24 h, the percentages
that an apparent G1 or S phase arrest was induced after the treatment with a lower
different from the vehicle control. Data are expressed as mean ± SD values from three
(1 picture or pasted object on this page, not shown here)

DNA Topo I = biological target: T1, DNA Topo I (Homo sapiens, UniProt P11387); test: Topo I inhibition assay (DNA relaxation assay); type: biochemical; details: DNA relaxation assay, pBR322, mean ± SD
T1 construct: purchased ThermoFisher, Waltham, MA, USA
T1 sequence (P11387 1-765): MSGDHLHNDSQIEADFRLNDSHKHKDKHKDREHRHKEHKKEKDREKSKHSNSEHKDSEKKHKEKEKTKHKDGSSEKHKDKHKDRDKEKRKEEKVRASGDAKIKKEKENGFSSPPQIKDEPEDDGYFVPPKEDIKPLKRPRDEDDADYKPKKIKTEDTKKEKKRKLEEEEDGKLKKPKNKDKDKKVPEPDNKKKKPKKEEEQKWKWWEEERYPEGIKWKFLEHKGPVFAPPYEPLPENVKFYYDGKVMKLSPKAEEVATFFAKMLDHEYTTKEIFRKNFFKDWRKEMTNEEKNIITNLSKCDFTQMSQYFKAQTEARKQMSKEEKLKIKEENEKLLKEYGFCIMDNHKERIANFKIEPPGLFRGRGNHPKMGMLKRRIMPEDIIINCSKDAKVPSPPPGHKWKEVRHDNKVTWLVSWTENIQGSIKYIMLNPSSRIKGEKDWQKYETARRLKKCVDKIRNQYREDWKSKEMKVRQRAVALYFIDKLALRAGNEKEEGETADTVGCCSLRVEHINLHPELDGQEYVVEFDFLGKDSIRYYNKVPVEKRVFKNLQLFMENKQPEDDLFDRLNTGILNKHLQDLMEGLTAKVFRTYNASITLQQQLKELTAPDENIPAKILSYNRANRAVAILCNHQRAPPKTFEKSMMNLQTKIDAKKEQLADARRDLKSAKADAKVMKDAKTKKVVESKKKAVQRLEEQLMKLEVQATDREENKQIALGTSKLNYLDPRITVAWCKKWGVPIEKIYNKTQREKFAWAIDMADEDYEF
Description: The DNA relaxation assay was adopted to investigate the compounds’ inhibitory activities on Topo I. Different concentrations of the compounds, dissolved and diluted in DMSO, were added into the relaxation buffer (50 mM Tris, pH 7.5, 50 mM KCl, 10 mM MgCl2, 0.1 mM EDTA, 0.5 Mm dithiothreitol, and 0.05 mg/mL bovine serum albumin) containing 0.2 U Topo I (ThermoFisher, Waltham, MA, USA) and incubated at room temperature for 10 min. After that, 500 ng supercoiled pBR322 plasmid DNA (ThermoFisher, Waltham, MA, USA) was added and then incubated at 37 °C for another 30 min. Finally, the reactions were stopped with a stopping solution (5% sodium dodecyl sulfate, 0.0025% bromophenol blue, and 25% glycerol), and the mixtures were applied onto 0.8% agarose gel and subjected to electrophoresis for 1.5 h in Tris-Acetate-EDTA buffer. After being stained with GelRed (Biotium, Fremont, CA, USA), the gel was imagined with the imaging system (Biotop, Shanghai, China). […] The band density of the supercoiled DNA was quantified by the ImageJ software (version 1.53a, National Institutes of Health, Bethesda, MD, USA), and the inhibition activity is expressed as the percentage inhibition and calculated by formula: Inhibition % = [(A − B)/(C − B)] × 100%, where A is the band density of the tested samples, B is the band density of the negative control, and C is the band density of the blank control.

MDA-MB-231 = test: SRB cytotoxicity assay, MDA-MB-231; type: cell-based; details: Homo sapiens, MDA-MB-231; SRB assay, 48 h, mean ± SD; read-out: IC50 Cytotoxicity MDA-MB-231
Source text: as §1, §2

DLD-1 = test: SRB cytotoxicity assay, DLD-1; type: cell-based; details: Homo sapiens, DLD-1; SRB assay, 48 h, mean ± SD; read-out: IC50 Cytotoxicity DLD-1
Source text: as §1, §2

DLD-1 cells [1] = test: Western blot of cell cycle-related proteins in DLD-1; type: cell-based, human; details: 24 h
Description: Cells treated with the compounds were harvested, and the total protein was isolated with lysis buffer (72 mM Tris pH 6.8, 2% SDS, 10% glycerol, and 0.1% bromophenol blue). The proteins were subjected to SDS-PAGE and transferred to a 0.45 μm PVDF membrane (Millipore, Burlington, USA). After being blocked with 5% non-fat milk in TBST, the membranes were washed and then incubated with specific primary antibodies (Cdk2 and Cdk6 were purchased from BBI Life Sciences Corporation, Shanghai, China; cyclin A, cyclin B, cyclin D, cyclin E, Cdk1, and Cdk4 were purchased from Proteintech, Rosemont, IL, USA) in TBST containing 2% non-fat milk overnight at 4 °C. After washing, the membranes were incubated with secondary horseradish peroxidase (HRP)-conjugated antibodies at room temperature for 1 h. The blot was visualized using an enhanced chemiluminescence assay kit (Meilunbio, Dalian, China) under a chemiluminescence detector (Tanon, Shanghai, China). The band density of the blot was quantified by the ImageJ software with at least three independent experiments.

A549 = test: SRB cytotoxicity assay, A549; type: cell-based; details: Homo sapiens, A549; SRB assay, 48 h, mean ± SD; read-out: IC50 Cytotoxicity A549
Source text: as §1, §2

DLD-1 cells [2] = test: DNA content analysis (cell cycle, flow cytometry) in DLD-1; type: cell-based, human; details: 24 h
Description: as §3

[3] = SRB cytotoxicity assay, hepatocyte HL-7702; type: cell-based, human; details: HL-7702 hepatocyte cell line; SRB assay, 48 h, human hepatocyte, mean ± SD; read-out: IC50 Cytotoxicity HL-7702
Source text: as §1, §2

- IC50 (DNA Topo I): 146 ± 7.88 µM
SMILES: COc1ccc(-c2oc3cc(O)c(OC)c(O)c3c(=O)c2OC)cc1O [Compound 5]
- IC50 (HepG2): 40.3 ± 11.1 µM
- IC50 (HCT116): 0.79 ± 0.13 µM
- percentage of cells in the G1/S phase (HCT116 cells; HCT116, 0.5 μM): 91.23%
- percentage of cell population in the G2/M phase (HCT116 cells; HCT116, 1 μM): 81.84%
- percentage of cells in G1/S (combined) phase (HCT116 cells; HCT116, 1 μM): 18.13%
- percentage of cell population in the G2/M phase (HCT116 cells; HCT116, 2 μM): 89.72%
- percentage of cells in G1/S (combined) phase (HCT116 cells; HCT116, 2 μM): 10.16%
- IC50 (MDA-MB-231): 39.7 ± 4.58 µM
- IC50 (DLD-1): 0.6 ± 0.05 µM
- expression levels of cyclin A, cyclin B, and CDK6 (DLD-1 cells [1]; DLD-1, 2 μM): potently decreased
- expression of cylcin D, cyclin E, and CDK6 (DLD-1 cells [1]; DLD-1, 1 and 0.5 μM): potent downregulation
- IC50 (A549): 2.16 ± 0.3 µM
- percentage of cells in the G1/S phase (DLD-1 cells [2]; DLD-1, 0.5 μM): 85.30%
- percentage of cells in the G1/S phase (DLD-1 cells [2]; DLD-1, 1 μM): 76.83%
- percentage of cell population in the G2/M phase (DLD-1 cells [2]; DLD-1, 2 μM): 86.05%
- percentage of cells in the G1/S (combined) phase (DLD-1 cells [2]; DLD-1, 2 μM): 13.46%
- IC50 at 48 h [3]: 14.4 ± 0.45 µM
